Assay results reported in PubChem BioAssay (NCI).
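All cell lines were grown in 96-well plates and treated with compound for 48 hours. GI50 = concentration required for 50% inhibition of growth. Definition used: TGI = concentration required for complete inhibition of growth.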

What was measured:
Experiment in all cases: DTP human tumour cell line panel, 48 h
HL-60(TB) leukemia = tested on: HL-60(TB) leukemia
KM12 colon = tested on: KM12 colon
MDA-MB-231 breast = tested on: MDA-MB-231 breast
SNB-75 CNS = tested on: SNB-75 CNS
SR leukemia = tested on: SR leukemia
PC-3 prostate = tested on: PC-3 prostate
NCI-H460 lung = tested on: NCI-H460 lung
SNB-19 CNS = tested on: SNB-19 CNS
SK-MEL-5 melanoma = tested on: SK-MEL-5 melanoma
U251 CNS = tested on: U251 CNS
CCRF-CEM leukemia = tested on: CCRF-CEM leukemia
OVCAR-3 ovarian = tested on: OVCAR-3 ovarian
NCI/ADR-RES ovarian = tested on: NCI/ADR-RES ovarian
SK-OV-3 ovarian = tested on: SK-OV-3 ovarian
MDA-MB-435 = tested on: MDA-MB-435
HS 578T breast = tested on: HS 578T breast
IGROV1 ovarian = tested on: IGROV1 ovarian
UACC-257 melanoma = tested on: UACC-257 melanoma
NCI-H522 lung = tested on: NCI-H522 lung
A549 NSCLC = tested on: A549 NSCLC
BT-549 breast = tested on: BT-549 breast
NCI-H23 lung = tested on: NCI-H23 lung
NCI-H226 lung = tested on: NCI-H226 lung
OVCAR-4 ovarian = tested on: OVCAR-4 ovarian
EKVX NSCLC = tested on: EKVX NSCLC
CAKI-1 renal = tested on: CAKI-1 renal
HOP-92 NSCLC = tested on: HOP-92 NSCLC
MCF7 breast = tested on: MCF7 breast
OVCAR-8 ovarian = tested on: OVCAR-8 ovarian

C1=Cc2ccccc2Nc2ccccc21
GI50 (HL-60(TB) leukemia): > 100 µM | TGI (HL-60(TB) leukemia): > 100 µM | GI50 (KM12 colon): > 100 µM | TGI (KM12 colon): > 100 µM | GI50 (MDA-MB-231 breast): > 100 µM | TGI (MDA-MB-231 breast): > 100 µM | GI50 (SNB-75 CNS): > 100 µM | TGI (SNB-75 CNS): > 100 µM | GI50 (SR leukemia): > 100 µM | TGI (SR leukemia): > 100 µM | GI50 (PC-3 prostate): > 100 µM | TGI (PC-3 prostate): > 100 µM | GI50 (NCI-H460 lung): > 100 µM | TGI (NCI-H460 lung): > 100 µM | GI50 (SNB-19 CNS): > 100 µM | TGI (SNB-19 CNS): > 100 µM | GI50 (SK-MEL-5 melanoma): > 100 µM | TGI (SK-MEL-5 melanoma): > 100 µM | GI50 (U251 CNS): > 100 µM | TGI (U251 CNS): > 100 µM | GI50 (CCRF-CEM leukemia): > 100 µM | TGI (CCRF-CEM leukemia): > 100 µM | GI50 (OVCAR-3 ovarian): > 100 µM | TGI (OVCAR-3 ovarian): > 100 µM | GI50 (NCI/ADR-RES ovarian): > 100 µM | TGI (NCI/ADR-RES ovarian): > 100 µM | GI50 (SK-OV-3 ovarian): > 100 µM | TGI (SK-OV-3 ovarian): > 100 µM | GI50 (MDA-MB-435): > 100 µM | TGI (MDA-MB-435): > 100 µM | GI50 (HS 578T breast): > 100 µM | TGI (HS 578T breast): > 100 µM | GI50 (IGROV1 ovarian): > 100 µM | TGI (IGROV1 ovarian): > 100 µM | GI50 (UACC-257 melanoma): > 100 µM | TGI (UACC-257 melanoma): > 100 µM | GI50 (NCI-H522 lung): > 100 µM | TGI (NCI-H522 lung): > 100 µM | GI50 (A549 NSCLC): > 100 µM | TGI (A549 NSCLC): > 100 µM | GI50 (BT-549 breast): > 100 µM | TGI (BT-549 breast): > 100 µM | GI50 (NCI-H23 lung): > 100 µM | TGI (NCI-H23 lung): > 100 µM | GI50 (NCI-H226 lung): > 100 µM | TGI (NCI-H226 lung): > 100 µM | GI50 (OVCAR-4 ovarian): > 100 µM | TGI (OVCAR-4 ovarian): > 100 µM | GI50 (EKVX NSCLC): 50 µM | TGI (EKVX NSCLC): > 100 µM | GI50 (CAKI-1 renal): > 100 µM | TGI (CAKI-1 renal): > 100 µM | GI50 (HOP-92 NSCLC): 86.1 µM | TGI (HOP-92 NSCLC): > 100 µM | GI50 (MCF7 breast): 74.7 µM | TGI (MCF7 breast): > 100 µM | GI50 (OVCAR-8 ovarian): > 100 µM | TGI (OVCAR-8 ovarian): > 100 µM
